Article PMC4018220 (Transplantation, 2014)
Like-named read-outs stand apart in the source and are kept apart here.

How the values were obtained:
[1] = for Median [IQR] AUC: TAC, all weeks, dose and weight adjusted
[2] = cited from earlier work
clinical = settings: human, in vivo

C=CC[C@@H]1/C=C(\C)C[C@H](C)C[C@H](OC)[C@H]2O[C@@](O)(C(=O)C(=O)N3CCCC[C@H]3C(=O)O[C@H](/C(C)=C/[C@@H]3CC[C@@H](O)[C@H](OC)C3)[C@H](C)[C@@H](O)CC1=O)[C@H](C)C[C@@H]2OC [TAC, tacrolimus]
Change in AUC over time ([1]; NNRTIs dosed with TAC): No change | Increase over time of dose and weight adjusted AUC ([1]; TAC given with protease inhibitors with or without NNRTIs): ~ 30% | Change of Tmax over time ([1]; TAC with NNRTIs alone): decreased | Change of Tmax over time ([1]; TAC with combination PI+NNRTIs): doubled | Median [IQR] AUC ([1]; +NNRTI): 3142 [2121-5157] ng*hr/mL/mg/kg | Median [IQR] AUC ([1]; +PI): 26889 [17208-42250] ng*hr/mL/mg/kg | Median [IQR] AUC ([1]; +PI/NNRTI): 12587 [8524-18780] ng*hr/mL/mg/kg | Median Tac Cx ([1]; W2, C0, NNRTI (n=4)): 199 ng/mL/mg/kg | Median Tac Cx ([1]; W2, C0, PI (n=4)): 963 ng/mL/mg/kg | Median Tac Cx ([1]; W2, C1, NNRTI (n=4)): 225 ng/mL/mg/kg | Median Tac Cx ([1]; W2, C1, PI (n=4)): 1045 ng/mL/mg/kg | Median Tac Cx ([1]; W2, C2, NNRTI (n=4)): 338 ng/mL/mg/kg | Median Tac Cx ([1]; W2, C2, PI (n=4)): 1687 ng/mL/mg/kg | Median Tac Cx ([1]; W2, C3, NNRTI (n=4)): 280 ng/mL/mg/kg | Median Tac Cx ([1]; W2, C3, PI (n=4)): 2325 ng/mL/mg/kg | Median Tac Cx ([1]; W2, C4, NNRTI (n=4)): 272 ng/mL/mg/kg | Median Tac Cx ([1]; W2, C4, PI (n=4)): 2332 ng/mL/mg/kg | Median Tac Cx ([1]; W12, C0, NNRTI (n=4)): 213 ng/mL/mg/kg | Median Tac Cx ([1]; W12, C0, PI (n=4)): 638 ng/mL/mg/kg | Median Tac Cx ([1]; W12, C1, NNRTI (n=4)): 420 ng/mL/mg/kg | Median Tac Cx ([1]; W12, C1, PI (n=4)): 1590 ng/mL/mg/kg | Median Tac Cx ([1]; W12, C2, NNRTI (n=4)): 368 ng/mL/mg/kg | Median Tac Cx ([1]; W12, C2, PI (n=4)): 2049 ng/mL/mg/kg | Median Tac Cx ([1]; W12, C3, NNRTI (n=4)): 290 ng/mL/mg/kg | Median Tac Cx ([1]; W12, C3, PI (n=4)): 2341 ng/mL/mg/kg | Median Tac Cx ([1]; W12, C4, NNRTI (n=4)): 296 ng/mL/mg/kg | Median Tac Cx ([1]; W12, C4, PI (n=4)): 2550 ng/mL/mg/kg | Median Tac Cx ([1]; W28, C0, NNRTI (n=3)): 193 ng/mL/mg/kg | Median Tac Cx ([1]; W28, C1, NNRTI (n=3)): 497 ng/mL/mg/kg | Median Tac Cx ([1]; W28, C2, NNRTI (n=3)): 368 ng/mL/mg/kg | Median Tac Cx ([1]; W28, C3, NNRTI (n=3)): 275 ng/mL/mg/kg | Median Tac Cx ([1]; W28, C4, NNRTI (n=3)): 223 ng/mL/mg/kg | Median Tac Cx ([1]; W52, C0, NNRTI (n=4)): 148 ng/mL/mg/kg | Median Tac Cx ([1]; W52, C1, NNRTI (n=4)): 301 ng/mL/mg/kg | Median Tac Cx ([1]; W52, C2, NNRTI (n=4)): 322 ng/mL/mg/kg | Median Tac Cx ([1]; W52, C3, NNRTI (n=4)): 242 ng/mL/mg/kg | Median Tac Cx ([1]; W52, C4, NNRTI (n=4)): 208 ng/mL/mg/kg | Association of higher TAC levels with new onset DM (OR) ([2]; HCV-positive liver transplant, p=0.12): 2.21 | Correlation of higher TAC trough levels with rejection ([2]; NIH multicenter trial): decreased rejection rates | Tmax (clinical): 2 to 3 h
